Reference: patent US10800739B2, “4-carboxamido-isoindolinone derivatives as selective PARP-1 inhibitors” (NERVIANO MEDICAL SCIENCES S.r.l, priority 2012, dated 2020)
Counter-ions that a name gives are not always drawn. Like-named read-outs stand apart in the source and are kept apart here. Values belong to the compound of their own block, whether it stands above or below them.

Key:
[1] = Pharmacokinetics and oral bioavailability in the mouse; assay type: in vivo; conditions: for F on AUC: 10 mg/kg, ratio of oral to IV dose-normalized AUC; for clearance / Vd / AUC / Cmax / half-life: male, Balb Nu/Nu, plasma, mean value; for clearance / Vd: 10 mg/kg intravenous bolus; for clearance: read-out: Cl (IV bolus); for Vd: read-out: Vdss (IV bolus); for AUC / Cmax / half-life: 10 mg/kg oral; for half-life: read-out: T½ (oral) (converted)
[2] = tested on: hydrogen peroxide induced PAR formation in HeLa cells; assay: PAR assay: inhibition of hydrogen peroxide induced PAR formation in HeLa cells; conditions: Homo sapiens, read-out: PAR assay (IC50 μM)
[3] = tested on: Capan-1 human pancreatic cancer tumors; assay: In vivo efficacy as single agent, Capan-1 BRCA-2 mutated mouse model; conditions: 75 mg/kg oral daily; for Max TGI (%): single agent, Capan-1 xenograft; for Toxicity: body weight reduction, out of 7 mice treated
From the text: Balb, athymic Nu/Nu male mice, from Harlan (Italy), were maintained in agreement with the European Communities Council Directive no. 86/609/EEC concerning the protection of animals used for experimental or other scientific purposes, in cages with paper filter cover, food and bedding sterilized and acidified water. Fragments of Capan-1 human pancreatic cancer tumors were implanted subcutaneously. […] Each group included seven animals. The treatment started one day after randomization. Compound of formula (I) was administered by oral route as a methocel suspension at the indicated doses and times. Tumor dimension was measured regularly by calipers during the experiments and tumor mass was calculated as described in Simeoni M. et al., Cancer Res 64, 1094-1101 (2004).

PARP-2 = PARP-2 (Homo sapiens (Human), UniProt Q9UGN5); assay: Fluorescence polarization displacement assay with probe of formula (IP), PARP-2; assay type: binding; conditions: probe P1
Method: (§1) Affinity evaluation of the tested compounds and their selectivity with respect to the different PARP isoforms of interest was assessed in a displacement assay.
(§2) b) comparing the polarization signal generated in the absence of the test compound with the one generated in the presence of different concentrations of the test compound, and
(§3) c) evaluating the ability of the test compound to displace the compound of formula (IP) as defined above indicated from a decreased fluorescence polarization level.
(§4) The 5H-phenanthridin-6-one-derived probe (IP) was selected for its capability of binding to the PARP proteins, both encompassing full-length native proteins and fragments thereof.
(§5) The polarization signal can be measured, e.g., by a plate reader such as the Saphire2 (Tecan). Data analysis was performed, e.g., by using the Dynafit software. Displacement data were also fitted, e.g., by using Excel spreadsheet (Microsoft Inc. Seattle, USA) to a four parameter logistic model (4PL), or Hill-Slope model. The assay was used to test compounds of the present invention. The displacement ability of the test compounds of formula (I) is in correlation with the compounds affinity for the NAD pocket of the enzyme.

PARP-3 = PARP-3 (Homo sapiens (Human), UniProt Q9Y6F1); assay: Fluorescence polarization displacement assay with probe of formula (IP), PARP-3; assay type: binding
Method: as §1, §2, §3, §4, §5

PARP-1 = PARP-1 (Homo sapiens (Human), UniProt P09874); assay: Fluorescence polarization displacement assay with probe of formula (IP), PARP-1; assay type: binding; conditions: for DC50: probe P1
Method: as §1, §2, §3, §4, §5

BRCA-mutated cancer = conditions: 19 patients with BRCA mutations and breast, ovarian and prostate cancer, phase I; cited from earlier work
[4] = probe P1; read-out: PARP-3 (DC50 μM)

Chain of PARP-1 (P09874 whole entry): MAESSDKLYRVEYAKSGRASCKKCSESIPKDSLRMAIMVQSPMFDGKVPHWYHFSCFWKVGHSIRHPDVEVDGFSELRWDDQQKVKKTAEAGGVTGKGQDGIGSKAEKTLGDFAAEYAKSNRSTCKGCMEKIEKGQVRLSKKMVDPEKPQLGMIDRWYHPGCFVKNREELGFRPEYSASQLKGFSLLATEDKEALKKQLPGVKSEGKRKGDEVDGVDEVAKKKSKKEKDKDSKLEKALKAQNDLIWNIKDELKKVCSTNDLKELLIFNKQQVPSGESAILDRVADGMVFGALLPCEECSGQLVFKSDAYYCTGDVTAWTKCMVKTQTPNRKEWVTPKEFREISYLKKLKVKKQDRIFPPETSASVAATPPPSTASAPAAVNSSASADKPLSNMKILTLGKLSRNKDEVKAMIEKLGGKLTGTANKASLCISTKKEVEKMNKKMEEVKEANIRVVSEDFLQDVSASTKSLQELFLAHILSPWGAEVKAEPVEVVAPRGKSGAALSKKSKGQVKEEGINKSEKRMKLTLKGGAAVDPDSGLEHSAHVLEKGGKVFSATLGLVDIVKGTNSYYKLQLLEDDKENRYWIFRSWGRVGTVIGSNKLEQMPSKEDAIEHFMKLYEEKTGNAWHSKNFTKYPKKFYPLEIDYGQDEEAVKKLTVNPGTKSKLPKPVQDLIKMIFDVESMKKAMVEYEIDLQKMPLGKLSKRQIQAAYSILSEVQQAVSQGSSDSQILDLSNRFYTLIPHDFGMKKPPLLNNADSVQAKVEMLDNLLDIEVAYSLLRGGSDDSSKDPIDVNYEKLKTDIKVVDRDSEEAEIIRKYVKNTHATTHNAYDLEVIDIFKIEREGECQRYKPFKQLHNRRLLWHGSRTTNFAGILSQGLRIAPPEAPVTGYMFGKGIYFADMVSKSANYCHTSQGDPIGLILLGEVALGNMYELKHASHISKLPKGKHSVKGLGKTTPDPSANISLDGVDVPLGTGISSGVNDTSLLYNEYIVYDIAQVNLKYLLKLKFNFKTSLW
Chain of PARP-2 (Q9UGN5 whole entry): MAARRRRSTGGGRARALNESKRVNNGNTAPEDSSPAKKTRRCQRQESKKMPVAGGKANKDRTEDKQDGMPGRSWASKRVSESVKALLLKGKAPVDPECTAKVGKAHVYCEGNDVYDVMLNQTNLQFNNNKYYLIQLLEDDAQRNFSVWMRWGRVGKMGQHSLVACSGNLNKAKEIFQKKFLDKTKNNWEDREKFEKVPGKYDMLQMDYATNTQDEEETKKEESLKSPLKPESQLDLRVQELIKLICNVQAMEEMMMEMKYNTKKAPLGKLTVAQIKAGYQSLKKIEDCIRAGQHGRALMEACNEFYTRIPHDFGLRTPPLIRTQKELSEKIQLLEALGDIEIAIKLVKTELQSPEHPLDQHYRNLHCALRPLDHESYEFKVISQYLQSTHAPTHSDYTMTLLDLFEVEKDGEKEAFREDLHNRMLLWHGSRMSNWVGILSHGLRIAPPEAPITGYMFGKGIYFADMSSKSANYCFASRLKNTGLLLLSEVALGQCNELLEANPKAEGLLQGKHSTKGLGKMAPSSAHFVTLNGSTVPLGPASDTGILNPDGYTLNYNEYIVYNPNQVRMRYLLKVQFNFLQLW
Chain of PARP-3 (Q9Y6F1 whole entry): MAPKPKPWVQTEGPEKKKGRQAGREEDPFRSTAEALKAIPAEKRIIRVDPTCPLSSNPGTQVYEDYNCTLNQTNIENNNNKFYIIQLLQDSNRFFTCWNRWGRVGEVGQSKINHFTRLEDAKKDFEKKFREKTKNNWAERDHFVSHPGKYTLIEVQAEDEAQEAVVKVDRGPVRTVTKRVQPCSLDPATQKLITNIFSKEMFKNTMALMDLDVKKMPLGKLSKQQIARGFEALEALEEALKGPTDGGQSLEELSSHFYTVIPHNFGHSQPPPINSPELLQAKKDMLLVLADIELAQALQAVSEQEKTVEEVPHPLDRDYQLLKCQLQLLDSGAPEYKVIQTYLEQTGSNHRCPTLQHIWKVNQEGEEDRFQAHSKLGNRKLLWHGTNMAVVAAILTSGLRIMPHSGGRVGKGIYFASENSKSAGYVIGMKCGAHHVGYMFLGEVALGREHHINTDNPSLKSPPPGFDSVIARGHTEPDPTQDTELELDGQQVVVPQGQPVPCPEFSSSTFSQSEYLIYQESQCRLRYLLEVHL

- F on AUC [1]: 30%
- clearance [1]: 63.1 mL/min/kg
- Vd [1]: 1.54 L/kg
- AUC [1]: 2.51 µM·h
- Cmax [1]: 3.06 µM
- half-life [1]: 40.8 min
Compound: NC(=O)c1cccc2c1C(=O)N(CCN1CCc3ccccc3C1)C2 [(3), 2-[2-(3,4-dihydro-1H-isoquinolin-2-yl)-ethyl]-3-oxo-2,3-dihydro-1H-isoindole-4-carboxylic Acid Amide]

- IC50 [2]: 1.4 µM
Compound: NC(=O)c1cccc2c1C(=O)N(C1CCN(Cc3cccs3)CC1)C2 [(9), 3-oxo-2-(1-thiophen-2-ylmethyl-piperidin-4-yl)-2,3-dihydro-1H-isoindole-4-carboxylic Acid Amide]

Compound: NC(=O)c1cccc2c1C(=O)N(C1CCN(C3CCCCC3)CC1)C2 [(11), 2-(1-cyclohexyl-piperidin-4-yl)-3-oxo-2,3-dihydro-1H-isoindole-4-carboxylic Acid Amide]
- Max TGI (%) [3]: 42%
- Toxicity [3]: 0/7
- F on AUC [1]: 100%
- clearance [1]: 41.3 mL/min/kg
- Vd [1]: 4.47 L/kg
- AUC [1]: 20.4 µM·h
- Cmax [1]: 3.87 µM
- half-life [1]: 163 min
- DC50 (PARP-2): 2.53 µM
- Kd (PARP-2): 1.4 µM
- DC50 (PARP-3; [4]): 2.06 µM
- Kd (PARP-1): < 0.01 µM
- DC50 (PARP-1): < 0.25 µM
- IC50 [2]: 0.02 µM

- IC50 [2]: 3.9 µM
Compound: NC(=O)c1cccc2c1C(=O)N(C1CCN(Cc3ccco3)CC1)C2 [(12), 2-(1-furan-2-ylmethyl-piperidin-4-yl)-3-oxo-2,3-dihydro-1H-isoindole-4-carboxylic Acid Amide]

- F on AUC [1]: 57%
- clearance [1]: 81.8 mL/min/kg
- Vd [1]: 2.68 L/kg
- AUC [1]: 3.22 µM·h
- Cmax [1]: 2.29 µM
- half-life [1]: 53.4 min
- IC50 [2]: 0.011 µM
Compound: NC(=O)c1cccc2c1C(=O)N(C1CCN(Cc3ccoc3)CC1)C2 [(14), 2-(1-furan-3-ylmethyl-piperidin-4-yl)-3-oxo-2,3-dihydro-1H-isoindole-4-carboxylic Acid Amide]

Compound: NC(=O)c1cccc2c1C(=O)N(C1CCN(Cc3ccccn3)CC1)C2 [(15), 3-oxo-2-(1-pyridin-2-ylmethyl-piperidin-4-yl)-2,3-dihydro-1H-isoindole-4-carboxylic Acid Amide]
- Max TGI (%) [3]: 54%
- Toxicity [3]: 0/7
- F on AUC [1]: 68%
- clearance [1]: 16.9 mL/min/kg
- Vd [1]: 0.79 L/kg
- AUC [1]: 19.2 µM·h
- Cmax [1]: 8.73 µM
- half-life [1]: 60.6 min
- DC50 (PARP-3; [4]): 0.9 µM

- F on AUC [1]: 37%
- clearance [1]: 79.3 mL/min/kg
- Vd [1]: 2.51 L/kg
- AUC [1]: 2.13 µM·h
- Cmax [1]: 2.97 µM
- half-life [1]: 37.8 min
- IC50 [2]: 0.02 µM
Compound: NC(=O)c1cccc2c1C(=O)N(C1CCN(Cc3ccc[nH]3)CC1)C2 [(16), 3-oxo-2-[1-(1H-pyrrol-2-ylmethyl)-piperidin-4-yl]-2,3-dihydro-1H-isoindole-4-carboxylic Acid Amide]

Compound: NC(=O)c1cccc2c1C(=O)N(CCCc1ccccc1)C2 [(17), 3-oxo-2-(3-phenyl-propyl)-2,3-dihydro-1H-isoindole-4-carboxylic Acid Amide]
- IC50 [2]: 1.51 µM

Compound: NC(=O)c1cccc2c1C(=O)N(CCCN1CCc3ccccc3C1)C2 [(19), 2-[3-(3,4-dihydro-1H-isoquinolin-2-yl)-propyl]-3-oxo-2,3-dihydro-1H-isoindole-4-carboxylic Acid Amide]
- Kd (PARP-1): < 0.03 µM
- DC50 (PARP-1): < 0.25 µM
- IC50 [2]: 0.33 µM

Compound: NC(=O)c1cccc2c1C(=O)N(CCCN1CCCc3ccccc31)C2 [(20), 2-[3-(3,4-dihydro-2H-quinolin-1-yl)-propyl]-3-oxo-2,3-dihydro-1H-isoindole-4-carboxylic Acid Amide]
- DC50 (PARP-2): 0.58 µM
- Kd (PARP-2): 0.19 µM
- Kd (PARP-1): < 0.03 µM
- DC50 (PARP-1): < 0.25 µM
- IC50 [2]: 0.83 µM

- DC50 (PARP-1): 0.28 µM
- IC50 [2]: 0.6 µM
Compound: CN1CCN(CCCN2Cc3cccc(C(N)=O)c3C2=O)CC1 [(21), 2-[3-(4-methyl-piperazin-1-yl)-propyl]-3-oxo-2,3-dihydro-1H-isoindole-4-carboxylic Acid Amide]

Compound: NC(=O)c1cccc2c1C(=O)N(CCCN1CCN(c3ccccc3)CC1)C2 [(22), 3-oxo-2-[3-(4-phenyl-piperazin-1-yl)-propyl]-23-dihydro-1H-isoindole-4-carboxylic Acid Amide]
- DC50 (PARP-2): 2.12 µM
- Kd (PARP-1): < 0.03 µM
- DC50 (PARP-1): < 0.25 µM
- IC50 [2]: 0.4 µM

Compound: NC(=O)c1cc(F)cc2c1C(=O)N(CCCN1CCOCC1)C2 [(23), 6-Fluoro-2-(3-morpholin-4-yl-propyl)-3-oxo-2,3-dihydro-1H-isoindole-4-carboxylic Acid Amide]
- DC50 (PARP-2): 2 µM
- Kd (PARP-1): < 0.03 µM
- DC50 (PARP-1): < 0.25 µM
- IC50 [2]: 0.4 µM

- IC50 [2]: 0.11 µM
Compound: NC(=O)c1cccc2c1C(=O)N(C1CCN(CC3CC3)CC1)C2 [(24), 2-(1-cyclopropylmethyl-piperidin-4-yl)-3-oxo-2,3-dihydro-1H-isoindole-4-carboxylic Acid Amide]

Compound: CC1CCCC(C)N1CCCN1Cc2cccc(C(N)=O)c2C1=O (stereo not shown) [(27), 2-[3-(2,6-dimethyl-piperidin-1-yl)-propyl]-3-oxo-2,3-dihydro-1H-isoindole-4-carboxylic Acid Amide Hydrochloride]
- DC50 (PARP-2): > 10 µM

- DC50 (PARP-3; [4]): 5.48 µM
Compound: NC(=O)c1cccc2c1C(=O)N(C1CCN(C3CCOCC3)CC1)C2 [(28), 3-ox-2-[1-(tetrahydro-pyran-4-yl)-piperidin-4-yl]-2,3-dihydro-1H-isoindole-4-carboxylic Acid Amide]

Compound: NC(=O)c1cc(F)cc2c1C(=O)N(C1CCN(C3CCCCC3)CC1)C2 [(29), 2-(1-cyclohexyl-piperidin-4-yl)-6-fluoro-3-oxo-2,3-dihydro-1H-isoindole-4-carboxylic acid amide]
- DC50 (PARP-2): 2.92 µM
- DC50 (PARP-3; read-out: PARP-3 (DC50 μM); probe P1): 1 µM
- Kd (PARP-1): < 0.01 µM
- DC50 (PARP-1): < 0.25 µM
- IC50 [2]: 0.5 µM

- DC50 (PARP-3; [4]): 0.35 µM
- DC50 (PARP-1): < 0.25 µM
Compound: NC(=O)c1cccc2c1C(=O)N(C1CCN(Cc3ccccc3)CC1)C2 [(30), 2-(1-benzyl-piperidin-4-yl)-3-oxo-2,3-dihydro-1H-isoindole-4-carboxylic Acid Amide]

Compound: NC(=O)c1cccc2c1C(=O)N(CCC1CCN(Cc3ccccc3)CC1)C2 [(31), 2-[2-(1-benzyl-piperidin-4-yl)-ethyl]-3-oxo-2,3-dihydro-1H-isoindole-4-carboxylic Acid Amide Hydrochloride]
- DC50 (PARP-2): > 10 µM
- DC50 (PARP-1): < 0.25 µM
- IC50 [2]: 0.2 µM

Compound: NC(=O)c1cccc2c1C(=O)N(CCCN1CCC(Cc3ccccc3)CC1)C2 [(32), 2-[3-(4-benzyl-piperidin-1-yl)-propyl]-3-oxo-2,3-dihydro-1H-isoindole-4-carboxylic Acid Amide]
- IC50 [2]: 0.17 µM

Compound: O=C(c1cc(Cc2n[nH]c(=O)c3ccccc23)ccc1F)N1CCN(C(=O)C2CC2)CC1 [Olaparib]
- objective response rate (BRCA-mutated cancer): 47%
